According to patent US11684607B2, “Secnidazole for use in the treatment of bacterial vaginosis” (priority 2014, dated 2023):

Key:
[1] = Safety evaluation (adverse events, vital signs, ECGs, laboratory tests) after single 1 g or 2 g dose of SYM-1219; format: in vivo, human; conditions: single 1 g or 2 g oral dose; healthy female subjects
Method: Methods: 28 healthy female subjects (14/group) ages 18-65 years were randomized to receive a single oral dose of either 1 or 2 grams of SYM-1219, mixed into 4 oz. of applesauce. […] Safety was evaluated by recording adverse events, vital signs, ECGs and laboratory tests.

[2] = Safety evaluation of SYM-1219 alone or in combination with EE2/NET; format: in vivo, human; conditions: 2 g
Method: Methods: Fifty-four (54) healthy female subjects, ages 18-65, received EE2/NET alone and in combination, where SYM-1219+EE2/NET were co-administered on Day 1 (Group B1; N=27) or SYM-1219 on Day 1 and EE2/NET on Day 2 (Group B2; N=27). Serial blood samples were drawn to measure plasma concentrations of EE2/NET. […] Safety was evaluated by recording of adverse events, vital signs, ECGs and standard laboratory tests.

[3] = tested on: bacterial vaginosis; experiment: Phase 2 double-blind placebo-controlled study, clinical outcome responder (clinical cure) in women with bacterial vaginosis; format: in vivo, human
Source text: (§1) The study was designed in accordance with FDA guidance for pivotal bacterial vaginosis trials with a primary end point clinical cure in the Modified Intent-to-Treat (mITT) population at day 21 to 30 versus placebo (two-sided test at alpha=0.05). Subjects were recruited to the study they presented with the following Amsel criteria: presence of typical discharge. a positive KOH Whiff test vaginal fluid pH greater than or equal to 4.7, and the presence of “clue cells” (epithelial cells with adhering bacteria) on microscopic examination.

[4] = design: species or system human; conditions: in vivo
Source text: as §1

Structure (SMILES): Cc1ncc([N+](=O)[O-])n1CC(C)O (stereo not shown) [SYM-1219, 1-(2-hydroxypropyl)-2-methyl-5-nitromidazole]
- changes in vital signs, electrocardiogram (ECG) or laboratory parameters [1]: no significant changes
- safety and tolerability [1]: safe and well-tolerated
- severity and outcome of all adverse events [1]: mild and resolved without sequelae
- changes in vital signs, ECG or laboratory parameters [2]: no significant changes
- safety and tolerability [2]: safe and well-tolerated
- effectiveness in treating bacterial vaginosis ([3]; 2 gram single dose, subjects with 3 or fewer as well as 4 or more episodes in the past 12 months): effective
- effectiveness for bacterial vaginosis compared with placebo ([3]; 2 gram single-dose): effective
- clinical cure rate ([3]; single 2 g oral dose, 21-30 days after treatment): 67.7%
- Acute sinusitis: Events ([4]; female, human): 0 n
- Acute sinusitis: Subjects ([4]; female, human): 0 n
- Adverse Event: Abdominal pain ([4]; female, human): 0%
- Adverse Event: Diarrhea ([4]; female, human): 0%
- Adverse Event: Fungal Infection ([4]; female, human): 3%
- Adverse Event: Headache ([4]; female, human): 1%
- Adverse Event: Metallic/Unusual Taste ([4]; female, human): 1%
- Adverse Event: Nausea ([4]; female, human): 1%
- Adverse Event: Vulva/Vaginal Irritation ([4]; female, human): 1%
- Alanine aminotransferase increased: Events ([4]; female, human): 1 n
- Any Adverse Event, Overall: Events ([4]; female, human): 19 n
- Aspartate aminotransferase increased: Events ([4]; female, human): 1 n
- Candida infection: Events ([4]; female, human): 0 n
- Candida infection: Subjects ([4]; female, human): 0 n
- Chlamydial infection: Events ([4]; female, human): 1 n
- Chromaturia: Events ([4]; female, human): 1 n
- Dizziness: Events ([4]; female, human): 1 n
- Dysgeusia: Events ([4]; female, human): 1 n
- Fungal infection: Events ([4]; female, human): 0 n
- Fungal infection: Subjects ([4]; female, human): 0 n
- Gastrointestinal disorders, Overall: Events ([4]; female, human): 1 n
- Gonorrhoea: Events ([4]; female, human): 1 n
- Headache: Events ([4]; female, human): 1 n
- Infections and infestations, Overall: Events ([4]; female, human): 7 n
- Injury, poisoning and procedural complications, Overall: Events ([4]; female, human): 1 n
- Investigations, Overall: Events ([4]; female, human): 2 n
- Nausea: Events ([4]; female, human): 1 n
- Nervous system disorders, Overall: Events ([4]; female, human): 3 n
- Oropharyngeal pain: Events ([4]; female, human): 1 n
- Renal and urinary disorders, Overall: Events ([4]; female, human): 1 n
- Reproductive system and breast disorders, Overall: Events ([4]; female, human): 3 n
- Respiratory, thoracic and mediastinal disorders, Overall: Events ([4]; female, human): 1 n
- Surgical and medical procedures, Overall: Events ([4]; female, human): 0 n
- Surgical and medical procedures, Overall: Subjects ([4]; female, human): 0 n
- Thermal burn: Events ([4]; female, human): 1 n
- Tooth abscess: Events ([4]; female, human): 1 n
- Tooth extraction: Events ([4]; female, human): 0 n
- Tooth extraction: Subjects ([4]; female, human): 0 n
- Tooth infection: Events ([4]; female, human): 1 n
- Upper respiratory tract infection: Events ([4]; female, human): 0 n
- Upper respiratory tract infection: Subjects ([4]; female, human): 0 n
- Urinary tract infection: Events ([4]; female, human): 1 n
- Vaginal discharge: Events ([4]; female, human): 1 n
- Vaginal odor: Events ([4]; female, human): 1 n
- Vulvovaginal mycotic infection: Events ([4]; female, human): 2 n
- Vulvovaginal pruritus: Events ([4]; female, human): 1 n
- tolerability [4]: surprisingly well tolerated
